Source: patent publication US12371454B2, “Cyclic peptide compound having Kras inhibitory action” (priority 2019, dated 2025)
Starred links: 1 amine or outer side, 2 acyl side, 3 side chain; linkers in the order of their positions; H or OH if unused. Positions of bridges follow the written chain, without caps; N, C: chain ends. Non-standard residues stand in square brackets, D forms with d. Residues, ends and D or L forms follow the SMILES beside them. *: point of attachment. hPhe(3,5-F2-4-CF3) = N[C@@H](CCc1cc(F)c(C(F)(F)F)c(F)c1)C(=O)O; hPhe(3-Cl-4-CF3) = N[C@@H](CCc1ccc(C(F)(F)F)c(Cl)c1)C(=O)O; hPhe(4-CF3) = N[C@@H](CCc1ccc(C(F)(F)F)cc1)C(=O)O; NMePhe(4-Cl) = CN[C@@H](Cc1ccc(Cl)cc1)C(=O)O; NMePhe(4-I) = CN[C@@H](Cc1ccc(I)cc1)C(=O)O; NMedβ3hAla = C[C@H](CC(=O)[*:2])N(C)[*:1]; NMeGly(cPent) = CN[C@H](C(=O)O)C1CCCC1; NMeGly(cBu) = CN[C@H](C(=O)O)C1CCC1; NMeCha = CN[C@@H](CC1CCCCC1)C(=O)O; NEtLeu = CCN[C@@H](CC(C)C)C(=O)O; NMeChg = CN[C@H](C(=O)O)C1CCCCC1; NMeD = CN[C@@H](CC(=O)O)C(=O)O; NMeHpra = C#CCC[C@H](NC)C(=O)O; NMeL = CN[C@@H](CC(C)C)C(=O)O; NPrAla = CCCN[C@@H](C)C(=O)O; NMeV = CN[C@H](C(=O)O)C(C)C; d(β3hA) = C[C@@H](N)CC(=O)O; NMeS = CN[C@@H](CO)C(=O)O; Piperidide = C1CCN(*)CC1; Pyrrolidide = C1CCN(*)C1; Ac5c = NC1(C(=O)O)CCCC1; Aib = CC(C)(N)C(=O)O; Sar = CNCC(=O)O; Propyl = CCC*

What was measured:
[1] = test system: Human pancreatic cancer cell line AsPC-1; test: Measurement of AsPC-1 cell growth inhibition (AsPC-1 CGI); assay type: cell-based; conditions: 96 h
Summary of the method: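 AsPC-1 cells in 15% FBS RPMI-1640 were exposed to test compound for 96 hours at 37° C, with CellTiter-Glo as endpoint.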

[2] = target: T1, Kras and SOS1 (biotin-tagged human Kras loaded with GDP, His-tagged human SOS1) (Homo sapiens, UniProt P01116, G12D); test: Protein-protein interaction inhibition between Kras and SOS1 (KrasGl2D-SOS PPI) using AlphaScreen; assay type: binding; conditions: AlphaScreen; biotin-tagged human Kras loaded with GDP, His-tagged human SOS1; read-out: KRAS G12D-SOS PPI IC50
T1 construct: made in house; host or cells: E. coli (stated for Kras only)
T1 sequence (P01116 1-188 isoform P01116-2 G12D): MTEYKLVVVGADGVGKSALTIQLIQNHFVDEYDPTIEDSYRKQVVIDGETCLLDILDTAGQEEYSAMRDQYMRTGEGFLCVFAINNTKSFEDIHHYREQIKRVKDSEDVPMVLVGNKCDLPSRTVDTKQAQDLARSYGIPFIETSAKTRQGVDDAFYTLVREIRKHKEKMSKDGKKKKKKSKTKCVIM
Summary of the method: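 AlphaScreen format: Ni donor beads capture His-SOS1, streptavidin acceptor beads capture biotinylated Kras (E. coli-expressed, GDP-loaded post-purification). Excite 680 nm, read 520-620 nm.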

Row | Compound | IC50 [1] [nM] | IC50 [2] [nM]
1 | CC[C@H](C)[C@@H]1NC(=O)[C@H](CC(C)C)N(C)C(=O)C[C@@H](C(=O)N2CCCCC2)N(C)C(=O)[C@H](C(C)C)N(C)C(=O)C2(CCCC2)NC(=O)[C@@H]2CCCN2C(=O)[C@H](CCc2ccc(C(F)(F)F)cc2)NC(=O)CN(C)C(=O)[C@H](CC2CCCCC2)N(C)C(=O)CN(C)C(=O)CN(C)C1=O [Compound 108] ([NMeL]I[Sar][Sar][NMeCha][Sar][hPhe(4-CF3)]P[Ac5c][NMeV][NMeD]-Piperidide; lactam N-11) | 100 to 500 | 5
2 | C#CCC[C@H]1C(=O)N[C@@H]([C@@H](C)CC)C(=O)N(C)CC(=O)N(C)CC(=O)N(C)[C@@H](Cc2ccc(I)cc2)C(=O)N(C)CC(=O)N[C@@H](CCc2ccc(C(F)(F)F)c(Cl)c2)C(=O)N2CCC[C@H]2C(=O)NC2(CCCC2)C(=O)N(C)[C@@H](C2CCCCC2)C(=O)N(C)[C@H](C)CC(=O)N1C [Compound 110] (cyclo([Ac5c][NMeChg][NMedβ3hAla][NMeHpra]I[Sar][Sar][NMePhe(4-I)][Sar][hPhe(3-Cl-4-CF3)]P)) | 100 to 500 | 3.8
3 | CC[C@H](C)[C@@H]1NC(=O)[C@H](CC(C)C)N(C)C(=O)C[C@@H](C)NC(=O)[C@H](CC(C)C)N(C)C(=O)C(C)(C)NC(=O)[C@H](CC(C)C)N(C)C(=O)[C@H](CCc2cc(F)c(C(F)(F)F)c(F)c2)NC(=O)CN(C)C(=O)[C@H](CC2CCCCC2)N(C)C(=O)CN(C)C(=O)CN(C)C1=O [Compound 119] (cyclo([Aib][NMeL][d(β3hA)][NMeL]I[Sar][Sar][NMeCha][Sar][hPhe(3,5-F2-4-CF3)][NMeL])) | 100 to 500 | 39
4 | CC[C@H](C)[C@@H]1NC(=O)[C@H](CC(C)C)N(C)C(=O)C[C@@H](C)NC(=O)[C@H](C(C)C)N(C)C(=O)C2(CCCC2)NC(=O)[C@@H]2CCCN2C(=O)[C@H](CCc2ccc(C(F)(F)F)c(Cl)c2)NC(=O)CN(C)C(=O)[C@H](Cc2ccc(Cl)cc2)N(C)C(=O)CN(C)C(=O)CN(C)C1=O [Compound 121] (cyclo([Ac5c][NMeV][d(β3hA)][NMeL]I[Sar][Sar][NMePhe(4-Cl)][Sar][hPhe(3-Cl-4-CF3)]P)) | 100 to 500 | 5.4
5 | CC[C@H](C)[C@@H]1NC(=O)[C@H](CC(C)C)N(C)C(=O)C[C@@H](C)NC(=O)[C@H](C2CCCC2)N(C)C(=O)C2(CCCC2)NC(=O)[C@@H]2CCCN2C(=O)[C@H](CCc2ccc(C(F)(F)F)c(Cl)c2)NC(=O)CN(C)C(=O)[C@H](CC2CCCCC2)N(C)C(=O)CN(C)C(=O)CN(C)C1=O [Compound 122] (cyclo([Ac5c][NMeGly(cPent)][d(β3hA)][NMeL]I[Sar][Sar][NMeCha][Sar][hPhe(3-Cl-4-CF3)]P)) | 100 to 500 | 8.6
6 | CCCOC[C@H]1C(=O)N(C)CC(=O)N[C@@H](CCc2ccc(C(F)(F)F)c(Cl)c2)C(=O)N2CCC[C@H]2C(=O)NC2(CCCC2)C(=O)N(C)[C@@H](C2CCCCC2)C(=O)N(C)[C@H](C(=O)N2CCCC2)CC(=O)N(C)[C@@H](C2CCC2)C(=O)N[C@@H]([C@@H](C)CC)C(=O)N(C)CC(=O)N(C)CC(=O)N1C [Compound 126] ([NMeGly(cBu)]I[Sar][Sar][NMeS](Propyl)[Sar][hPhe(3-Cl-4-CF3)]P[Ac5c][NMeChg][NMeD]-Pyrrolidide; lactam N-11) | 50 to 100 | 0.5
7 | CCCN1C(=O)C[C@@H](C(=O)N2CCCCC2)N(C)C(=O)[C@H](C(C)C)N(C)C(=O)C2(CCCC2)NC(=O)[C@@H]2CCCN2C(=O)[C@H](CCc2ccc(C(F)(F)F)c(Cl)c2)NC(=O)CN(C)C(=O)[C@H](CC2CCCCC2)N(C)C(=O)CN(C)C(=O)CN(C)C(=O)[C@H]([C@@H](C)CC)NC(=O)[C@@H]1C [Compound 131] ([NPrAla]I[Sar][Sar][NMeCha][Sar][hPhe(3-Cl-4-CF3)]P[Ac5c][NMeV][NMeD]-Piperidide; lactam N-11) | 100 to 500 | 3.3
8 | CC[C@H](C)[C@@H]1NC(=O)[C@H](CC(C)C)N(CC)C(=O)C[C@@H](C(=O)N2CCCCC2)N(C)C(=O)[C@H](C2CCCCC2)N(C)C(=O)C2(CCCC2)NC(=O)[C@@H]2CCCN2C(=O)[C@H](CCc2ccc(C(F)(F)F)c(Cl)c2)NC(=O)CN(C)C(=O)[C@H](CC2CCCCC2)N(C)C(=O)CN(C)C(=O)CN(C)C1=O [Compound 137] ([NEtLeu]I[Sar][Sar][NMeCha][Sar][hPhe(3-Cl-4-CF3)]P[Ac5c][NMeChg][NMeD]-Piperidide; lactam N-11) | 50 to 100 | 0.76
